Measured values reported in US20020193404A1, “Use of bicyclic heterocycles for the treatment and prevention of arterial thrombotic disease” (priority 2001, published 2002).

Legend:
human citrated plasma = assay: aPTT (activated partial thromboplastin time) prolongation; settings: concentration at which the aPTT time was double that of the control, 37° C.
Description: The inhibiting effect of the two substances on blood clotting was measured by determining the prolongation of aPTT (activated partial thromboplastin time) as follows:
Plasma, from citrated human blood
PTT reagent, Boehringer Mannheim (524298)
Calcium solution (0.025 mol/L), Behring Werke, Marburg (ORH 056/57)
Diethyl barbiturate acetate buffer, Behring Werke, Marburg (ORWH 60/61)
The aPTT was determined using a Biomatic—B 10 coagulometer made by Messrs Desaga (Wiesloch). The test substance was placed in the test tubes prescribed by the manufacturer with 0.1 ml of human citrated plasma and 0.1 ml of PTT reagent. The preparations were incubated for three minutes at 37° C. The clotting reaction was started by the addition of 0.1 ml of calcium solution. The time taken for the plasma to clot was measured by the apparatus as the calcium solution was added. Analogous test preparations to which 0.1 ml of diethyl barbiturate acetate buffer had been added were used as controls. According to the definition of EC200, the substance concentration at which the aPTT time was double that of the control was determined using a dosage-activity curve.

[1] = target: T1, human fibrinogen receptor (glycoprotein IIb/IIIa) (Homo sapiens, UniProt P05106+P08514); assay: Inhibition of binding of 3H-BIBU 52 to human thrombocytes; settings: 3H-BIBU 52 5 nM, human thrombocytes in plasma, ambient temperature, 20 minutes
T1 construct: endogenous in cells; host or cells: human thrombocytes in platelet-rich plasma from donor blood
Description: The inhibiting effect on the human fibrinogen receptor (glycoprotein IIb/IIIa) was investigated as follows:
Inhibition of Binding of ^3H-BIBU 52 to Human Thrombocytes:
A suspension of human thrombocytes was incubated with ^3H-BIBU 52 [=(3S,5S)-5-[(4′-amidino-4-biphenylyl)oxymethyl]-3-[(carboxy)methyl]-2-pyrrolidinone[3-^3H-4-biphenylyl]], which replaces the ligand ^125I-fibrinogen known from the literature (cf. DE-A-4 214 245), and various concentrations of the substance being tested. The free and bound ligands were separated by centrifugation and quantitatively determined by scintillation counting. The inhibition of the ^3H-BIBU 52 binding by the test substance was determined from the measurements obtained. To do this, donor blood was taken from an anticubital vein and anticoagulated with trisodium citrate (final concentration: 13 mM). The blood was centrifuged for ten minutes at 170× g and the supernatant platelet-rich plasma (PRP) was removed. The remaining blood was sharply centrifuged once more to obtain plasma. The PRP was diluted 1:10 with autologous plasma. […] 100 μl thereof were assayed in order to quantify the free ligand. […] The residual plasma still remaining in the pellet was determined from the ^14C content while the bound ligand was determined from the ^3H measurement. […]

T1 sequence (P08514 32-887 limits assumed): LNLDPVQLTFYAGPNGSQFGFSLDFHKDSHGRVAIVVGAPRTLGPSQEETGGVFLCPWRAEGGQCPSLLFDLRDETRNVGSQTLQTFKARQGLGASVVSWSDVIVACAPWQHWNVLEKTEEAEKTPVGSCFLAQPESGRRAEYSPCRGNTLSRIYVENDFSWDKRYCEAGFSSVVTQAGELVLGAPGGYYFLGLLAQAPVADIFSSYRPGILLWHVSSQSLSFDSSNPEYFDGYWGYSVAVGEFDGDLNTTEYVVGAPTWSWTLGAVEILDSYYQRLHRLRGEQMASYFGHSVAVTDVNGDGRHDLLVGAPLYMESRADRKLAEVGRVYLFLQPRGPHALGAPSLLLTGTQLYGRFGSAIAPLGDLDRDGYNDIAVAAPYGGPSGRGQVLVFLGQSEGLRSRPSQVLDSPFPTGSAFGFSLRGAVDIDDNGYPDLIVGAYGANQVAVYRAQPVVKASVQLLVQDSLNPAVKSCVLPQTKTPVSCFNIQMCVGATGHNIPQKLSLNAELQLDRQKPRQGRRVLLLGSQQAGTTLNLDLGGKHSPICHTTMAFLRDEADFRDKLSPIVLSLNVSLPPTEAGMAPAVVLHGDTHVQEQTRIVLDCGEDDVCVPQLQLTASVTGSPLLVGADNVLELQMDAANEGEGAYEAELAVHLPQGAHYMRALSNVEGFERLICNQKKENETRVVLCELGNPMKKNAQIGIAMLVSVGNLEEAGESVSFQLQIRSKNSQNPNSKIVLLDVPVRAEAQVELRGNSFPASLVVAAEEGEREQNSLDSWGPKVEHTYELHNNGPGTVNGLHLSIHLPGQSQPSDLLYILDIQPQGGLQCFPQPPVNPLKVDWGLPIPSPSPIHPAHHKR
T1 sequence (P08514 891-1039 partner limits assumed): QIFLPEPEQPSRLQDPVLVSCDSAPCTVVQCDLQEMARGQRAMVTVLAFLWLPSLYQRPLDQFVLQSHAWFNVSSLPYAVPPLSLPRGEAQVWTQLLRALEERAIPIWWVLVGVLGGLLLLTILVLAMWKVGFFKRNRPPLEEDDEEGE
T1 sequence (P05106 27-788): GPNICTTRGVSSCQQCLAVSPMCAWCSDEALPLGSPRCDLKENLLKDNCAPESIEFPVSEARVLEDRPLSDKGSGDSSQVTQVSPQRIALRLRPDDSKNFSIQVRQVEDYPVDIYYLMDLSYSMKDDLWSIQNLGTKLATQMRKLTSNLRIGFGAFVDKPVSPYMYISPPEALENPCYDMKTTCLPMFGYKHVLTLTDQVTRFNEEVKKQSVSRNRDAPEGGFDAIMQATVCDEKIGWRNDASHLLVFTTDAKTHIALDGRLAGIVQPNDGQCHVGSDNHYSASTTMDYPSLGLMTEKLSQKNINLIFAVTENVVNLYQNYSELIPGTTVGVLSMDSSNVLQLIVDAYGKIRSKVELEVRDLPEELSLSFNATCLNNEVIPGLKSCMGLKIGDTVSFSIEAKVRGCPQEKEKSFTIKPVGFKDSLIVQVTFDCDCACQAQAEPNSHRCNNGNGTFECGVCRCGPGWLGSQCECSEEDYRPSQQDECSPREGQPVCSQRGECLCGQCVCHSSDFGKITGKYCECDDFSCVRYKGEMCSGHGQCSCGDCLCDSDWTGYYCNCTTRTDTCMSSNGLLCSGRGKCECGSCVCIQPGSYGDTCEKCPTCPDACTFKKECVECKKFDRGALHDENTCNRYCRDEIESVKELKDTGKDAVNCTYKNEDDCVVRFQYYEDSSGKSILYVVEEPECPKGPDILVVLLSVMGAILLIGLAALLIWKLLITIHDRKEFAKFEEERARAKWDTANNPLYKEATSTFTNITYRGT

| Structure (SMILES) | aPTT (EC200) (human citrated plasma) [µmol/L] | IC50 [1] [nM] |
| --- | --- | --- |
| Cn1c(COc2ccc(C(=N)N)cc2)nc2cc(N(CC(=O)O)S(=O)(=O)c3cccc4cccnc34)ccc21 [A, 1-methyl-2-[(4-amidinophenyl)-oxymethyl]-5-[N-(hydroxycarbonylmethyl)-quinoline-8-sulphonylamino]-benzimidazole] | 0.013 | 6 |
| Cn1c(CNc2ccc(C(=N)N)cc2)nc2cc(N(CC(=O)O)S(=O)(=O)c3cccc4cccnc34)ccc21 [B, 1-methyl-2-[N-(4-amidinophenyl)-aminomethyl]-5-[N-(hydroxycarbonylmethyl)-quinoline-8-sulphonylamino]-benzimidazole] | 0.026 | 49 |
